# Measurements reported in patent publication US10870678B2, “Chiral peptides” (ARCUATE THERAPEUTICS, INC., priority 2016, dated 2020).
# Where two headings read alike, the source gives them in different places.
# Tested on: HepG2 human liver cancer cell line
# Test: Functional Mitochondrial Toxicity Assay, XFe96 Seahorse (HepG2)
# Assay type: cell-based
# Method: The present Examples interrogate the two major energy producing pathways in the cell, mitochondrial respiration and glycolysis. HepG2 human liver cancer cell lines were dosed with test compounds and in real time the extracellular oxygen levels and pH were measured using the XFe96 flux analyser (Seahorse Biosciences). XFe Technology uses solid-state sensors to simultaneously measure both oxygen consumption rate (OCR) and extracellular acidification rate (ECAR) to determine effects on oxidative phosphorylation (OXPHOS) and glycolysis simultaneously. The cells were then subjected to sequential exposure to various inhibitors of mitochondrial functional to assess cellular metabolism.
# A positive mitochondrial active compound is determined when there is a change in OCR or ECAR in the absence of cytotoxicity. Cytotoxicity was determined when both oxidative phosphorylation (OCR) and glycolysis (ECAR) were inhibited.
# OCR is a measurement of oxygen content in extracellular media. Changes in OCR indicate effects on mitochondrial function, and can be bi-directional. A decrease is due to an inhibition of mitochondrial respiration, whilst an increase may indicate an uncoupler, in which respiration is not linked to energy production.
# ECAR is the measurement of extracellular proton concentration (pH). An increase in signal means an increase in rate in number of pH ions (Thus decreasing pH value), and seen as an increase in glycolysis. Expressed as a fraction of basal control (rate prior to addition of compound).
# Reverse capacity is the measured ability of cells to respond to an increase in energy demand, a reduction indicates mitochondrial dysfunction.
# The Mitochondrial Stress Test is a series of sequential additions of compounds to the cells to assess a bioenergetics profile, and effects of test compounds on parameters such as proton leak and research capacity. This was used to assist in understanding potential mechanisms of mitochondrial toxicity. For example, it involves the addition of the follow compounds in this order:
# Oligomycin is a known inhibitor of ATP synthase, and prevents the formation of ATP. This provides a measurement of the amount of oxygen consumption related to ATP production and ATP turnover. The addition of Oligomycin results in a decrease in OCR under normal conditions, and residual OCR is related to the natural proton leak.
# Carbonyl cyanide 4-(trifluoromethoxy)phenylhydrazine (FCCP) is a protonphore, and is a known uncoupler of oxygen consumption from ATP production. This allows the maximum achievable transfer of electrons and oxygen consumption rate, and provides a measurement of reserve capacity.
# Rotenone and antimycin A are known inhibitors of complex I and III of the electron transport chain, respectively. This inhibits electron transport completely, and any residual oxygen consumption is due to non-mitochondrial activity via oxygen requiring enzymes.
# [1] = HepG2, read-out: Reserve Capacity AC50
Compound,ECAR MEC (HepG2) [µM],ECAR ↑↓ (HepG2),OCR MEC (HepG2) [µM],OCR ↑↓ (HepG2),Potential Mechanism (HepG2),Reserve Capacity MEC (HepG2) [µM],Reserve Capacity ↑↓ (HepG2),"AC50 (Homo sapiens, HepG2, read-out: ECAR AC50) [µM]","AC50 (Homo sapiens, HepG2, read-out: OCR AC50) [µM]","AC50 (Homo sapiens, HepG2, read-out: Reserve Capacity AC50) [µM]","AC50 (HepG2, read-out: ECAR AC50) [µM]","AC50 (HepG2, read-out: OCR AC50) [µM]",AC50 [1] [µM],"Reserve Capacity MEC (HepG2, listed as I-3 (1)) [µM]","Reserve Capacity MEC (HepG2, listed as I-3 (2)) [µM]"
"C=C(C)[C@H]1Cc2c(ccc3c2O[C@@H]2COc4cc(OC)c(OC)cc4[C@@H]2C3=O)O1 [Rotenone, reference compound]",0.00325,↑,<0.003,↓,ETC,<0.003,↓,0.496,0.0138,0.00349,,,,,
(D-Arg)(L-Dmt)(L-Lys)(L-Tyr)-NH2 [Peptide I-9],,,,,No effect,,,,,,> 100,> 100,> 100,,
(D-Arg)(L-Dmt)(L-Orn)(L-Phe)-NH2 [Peptide I-2],,,,,No effect,,,,,,> 100,> 100,> 100,,
(D-Arg)(L-Dmt)(L-Orn)(L-Tyr)-NH2 [Peptide I-10],,,,,No effect,,,,,,> 100,> 100,> 100,,
(D-Arg)(L-Leu)(L-Lys)(L-Phe)-NH2 [Peptide I-21],,,,,Other,62.5,↑,,,,> 100,> 100,> 100,,
(D-Arg)(L-Leu)(L-Orn)(L-Leu)-NH2 [Peptide I-24],,,,,Other,33.8,↑,,,,> 100,> 100,> 100,,
(D-Arg)(L-Leu)(L-Orn)(L-Phe)-NH2 [Peptide I-23],,,,,Other,65.9,↑,,,,> 100,> 100,> 100,,
(D-Arg)(L-Phe)(L-Lys)(L-Phe)-NH2 [Peptide I-22],,,,,No effect,100,↑,,,,> 100,> 100,> 100,,
(D-Arg)(L-Tyr)(L-Orn)(L-Phe)-NH2 [Peptide I-3],,,,,Other,,↑,,,,> 100,> 100,> 100,48.5,85.3
(D-Leu)(D-Orn)(D-Leu)(L-Orn)-NH2 [Peptide I-37],,,143,↓,Other,<0.1,↓,,,,> 100,> 100,1.11,,
(D-Lys)(L-Dmt)(L-Lys)(L-Phe)-NH2 [Peptide I-6],,,,,Other,50.3,↑,,,,> 100,> 100,> 100,,
(D-Lys)(L-Dmt)(L-Orn)(L-Phe)-NH2 [Peptide I-7],,,,,No effect,,,,,,> 100,> 100,> 100,,
(D-Lys)(L-Leu)(L-Orn)(L-Leu)-NH2 [Peptide I-25],,,,,No effect,,,,,,> 100,> 100,> 100,,
(D-Lys)(L-Tyr)(L-Orn)(L-Phe)-NH2 [Peptide I-8],,,,,Other,79.7,↑,,,,> 100,> 100,> 100,,
(D-Orn)((L-Dmt)(L-Orn)(L-Phe)-NH2 [Peptide I-4],,,,,No effect,,,,,,> 100,> 100,> 100,,
(D-Orn)(L-Leu)(L-Orn)(L-Leu)-NH2 [Peptide I-26],,,,,No effect,,,,,,> 100,> 100,> 100,,
